For 24 compounds, IC50, AC50 and GI50 results are on record in US20250332173A1, “COMPOUNDS AND METHODS FOR MODULATING NUCLEIC ACID SPLICING” (REMIX THERAPEUTICS INC., priority 2021, published 2025).

Where two headings read alike, the source gives them in different places.

For one assay, the system named is HTT mRNA. Put plainly: RT-qPCR splicing assay, HTT canonical junction (CJ) and alternative junction (AJ) mRNA. It is filed as cell-based, human. Conditions: Homo sapiens; for AC50: increase in HTT alternative junction (AJ) mRNA, read-out: HTT AJ AC50. Summed up: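 Read-out is one-step RT-qPCR on cell lysates detecting the exon-exon junction of each isoform, normalized to a housekeeping gene (PPIA in A673, GAPDH or GUSB in K562).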
(In general: Real-time PCR tracks product formation cycle by cycle.)

The subject of another assay is MYB. Description: HiBiT protein abundance assay, MYB HiBiT K562 cell line. It is filed as cell-based, human. Conditions: HiBiT K562 cell line, 24 hours, top dose 10 μM; read-out: Effect on protein abundance, MYB (IC50 category). The procedure, abridged: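 Tagged-protein abundance measured by split-NanoBiT luminescence after lysis, following 24 h compound exposure (37° C; 10 μM top, 3-fold, 10 points; DMSO ≤0.25%) of HiBiT knock-in K562 cells. Percent response vs DMSO and unmodified-cell controls; 4-parameter logistic interpolation at 50% gave IC50.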
Background: HiBiT is a short tag that completes a luciferase, so light tracks the accessible tagged protein.

Assay [1] has as its system K562 (human chronic myelogenous leukemia) cells. Description: Cell Titer Glo 2.0 cell viability assay. It is filed as cell-based. Conditions: Homo sapiens, K562, 72 h, K562 cells, 72 hours, Cell Titer Glo 2.0; read-out: K562 GI50. Background: ATP-based viability assays read luminescence as a measure of living cells.
The mark [2] stands for this setting: decrease in HTT canonical junction (CJ) mRNA, RT-qPCR, read-out: HTT CJ IC50.
Setting [3] is: Table 5 panel, canonical junction qPCR, compound concentration having 50% response in CJ decrease, read-out: HTT IC50 (decrease in CJ mRNA levels).

As for `Cc1cn2cc(-c3cc(F)c4c(=O)n([C@H]5CCNC[C@@H]5F)cnc4c3)cc(F)c2n1` (relative stereo) [Compound 341, 5-fluoro-7-(8-fluoro-2-methylimidazo[1,2-a]pyridin-6-yl)-3-(trans-3-fluoropiperidin-4-yl)quinazolin-4(3H)-one], the IC50 in the assay on HTT mRNA (setting [2]), in the assay on HTT mRNA (setting [3]) and in the assay on MYB was 100 to 1000 nM throughout. For the same compound, the AC50 in the assay on HTT mRNA (RT-qPCR) lay in the range of 100 to 1000 nM. Also, the GI50 in assay [1] lay in the range of 100 to 1000 nM.

With `Cc1cn2cc(-c3cc(F)c4c(=O)n([C@H]5CCN[C@@H](C)C5)cnc4c3)cc(F)c2n1` (relative stereo) [Compound 343, cis-5-fluoro-7-(8-fluoro-2-methylimidazo[1,2-a]pyridin-6-yl)-3-(2-methylpiperidin-4-yl)quinazolin-4(3H)-one], the values for the IC50 with HTT mRNA (setting [2]), with HTT mRNA (setting [3]) and in the assay on MYB were 100 to 1000 nM, 100 to 1000 nM and under 100 nM, respectively. The AC50 in the assay with HTT mRNA (RT-qPCR) is 100 to 1000 nM. The GI50 in assay [1] lay within 100 to 1000 nM.

For `Cc1cn2nc(-c3cc(F)c4c(=O)n([C@H]5CCNC6(CC6)C5)cnc4c3)cc(C)c2n1` (single isomer, unassigned) [Compound 357], the IC50 in the assay on HTT mRNA (setting [2]), with HTT mRNA (setting [3]) and in the assay with MYB was under 100 nM each time. Moreover, the AC50 in the assay on HTT mRNA (RT-qPCR) was under 100 nM. Further, the GI50 in assay [1] is under 100 nM.

For `CN1CCN(c2ccc3c(=O)n(-c4ccc5nn(C)cc5c4)cnc3c2)CC1` [Compound 152], the IC50 in the assay with HTT mRNA (setting [2]), in the assay with HTT mRNA (setting [3]) and in the assay on MYB was over 10000 nM in each case. Moreover, in the assay with HTT mRNA (RT-qPCR), the AC50 was over 10000 nM. Also, in assay [1], the GI50 is 1000 to 10000 nM.

Turning to `Cn1cc2cc(-n3cnc4cc(N5CCNCC5)ccc4c3=O)ccc2n1` [Compound 153], the IC50 in the assay with HTT mRNA (setting [2]), with HTT mRNA (setting [3]) and in the assay on MYB was over 10000 nM each time. Further, in the assay on HTT mRNA (RT-qPCR), the AC50 is over 10000 nM.

Take `Cc1cc(-c2ccc3c(=O)n(C4CCN(C)CC4)cnc3c2)cc2cn(C)nc12` [Compound 156]: the IC50 in the assay with HTT mRNA (setting [2]), in the assay with HTT mRNA (setting [3]) and with MYB was 1000 to 10000 nM throughout. In addition, in the assay with HTT mRNA (RT-qPCR), the AC50 was 1000 to 10000 nM.

Turning to `Cc1cc(-c2ccc3c(=O)n(C4CC(C)(C)NC(C)(C)C4)cnc3c2)cc2cn(C)nc12` [Compound 157], the results for the IC50 in the assay with HTT mRNA (setting [2]), in the assay with HTT mRNA (setting [3]) and in the assay with MYB were over 10000 nM, over 10000 nM and 1000 to 10000 nM, respectively. Further, the AC50 in the assay on HTT mRNA (RT-qPCR) was over 10000 nM.

For `Cn1cc2cc(-n3cnc4cc(C5=CCNCC5)ccc4c3=O)ccc2n1` [Compound 158], the IC50 with HTT mRNA (setting [2]) was over 10000 nM; in the assay on HTT mRNA (setting [3]) it was over 10000 nM; in the assay on MYB it was 1000 to 10000 nM. Besides, in the assay with HTT mRNA (RT-qPCR), the AC50 is over 10000 nM.

As to `CN1CC=C(c2ccc3c(=O)n(-c4ccc5nn(C)cc5c4)cnc3c2)CC1` [Compound 159], the IC50 in the assay with HTT mRNA (setting [2]), in the assay with HTT mRNA (setting [3]) and with MYB was over 10000 nM throughout. Besides, in the assay with HTT mRNA (RT-qPCR), the AC50 is over 10000 nM.

On to `CCN1CCC(n2ncc3cc(-c4cc(C)c5nc(C)cn5n4)ccc3c2=O)CC1` [Compound 266], for which the results for the IC50 with HTT mRNA (setting [2]), in the assay with HTT mRNA (setting [3]) and with MYB were under 100 nM, under 100 nM and 100 to 1000 nM, respectively. Further, the AC50 in the assay on HTT mRNA (RT-qPCR) is under 100 nM. Besides, the GI50 in assay [1] is 100 to 1000 nM.

`Cc1cn2nc(-c3ccc4c(c3)CCN(C3CCNC(C)(C)C3)C4=O)cc(C)c2n1` (stereo not drawn) [Compound 267]: the figures for the IC50 with HTT mRNA (setting [2]), in the assay on HTT mRNA (setting [3]) and in the assay with MYB were 100 to 1000 nM, 1000 to 10000 nM and 100 to 1000 nM, respectively. Moreover, in the assay with HTT mRNA (RT-qPCR), the AC50 was 1000 to 10000 nM. Besides, the GI50 in assay [1] is 1000 to 10000 nM.

On to `Cc1cn2nc(-c3ccc4c(c3)CCN(C3CCN(C)CC3)C4=O)cc(C)c2n1` [Compound 268], for which the IC50 with HTT mRNA (setting [2]) was 1000 to 10000 nM; in the assay on HTT mRNA (setting [3]), 1000 to 10000 nM; in the assay on MYB it was 100 to 1000 nM. In the assay with HTT mRNA (RT-qPCR), the AC50 fell in the range of 1000 to 10000 nM. Also, the GI50 in assay [1] lay within 1000 to 10000 nM.

Turning to `Cc1cn2nc(-c3ccc4c(c3)CCN(C3CCNC3)C4=O)cc(C)c2n1` (stereo not drawn) [Compound 269], the results for the IC50 in the assay on HTT mRNA (setting [2]), in the assay with HTT mRNA (setting [3]) and in the assay on MYB were over 10000 nM, over 10000 nM and 1000 to 10000 nM, respectively. For the same compound, the AC50 in the assay on HTT mRNA (RT-qPCR) is over 10000 nM. For the same compound, the GI50 in assay [1] is over 10000 nM.

In the case of `CCN1CCC(N2CCc3cc(-c4cc(C)c5nc(C)cn5n4)ccc3C2=O)CC1` [Compound 270], the figures for the IC50 in the assay with HTT mRNA (setting [2]), with HTT mRNA (setting [3]) and in the assay with MYB were 1000 to 10000 nM, 1000 to 10000 nM and 100 to 1000 nM, respectively. Further, the AC50 in the assay on HTT mRNA (RT-qPCR) was in the range of 1000 to 10000 nM. The GI50 in assay [1] is 1000 to 10000 nM.

Turning to `Cc1cn2nc(-c3ccc4c(=O)n(C5CCN(C)C5)ncc4c3)cc(C)c2n1` (stereo not drawn) [Compound 271], the IC50 in the assay on HTT mRNA (setting [2]), with HTT mRNA (setting [3]) and with MYB was 1000 to 10000 nM each time. Also, the AC50 with HTT mRNA (RT-qPCR) lay in the range of 1000 to 10000 nM. The GI50 in assay [1] lay within 1000 to 10000 nM.

For the compound `Cc1cn2nc(-c3ccc4c(=O)n([C@@H]5CCN[C@H](C)C5)ncc4c3)cc(C)c2n1` [Compound 272], the IC50 in the assay with HTT mRNA (setting [2]) is 100 to 1000 nM; with HTT mRNA (setting [3]), under 100 nM; in the assay with MYB, 100 to 1000 nM. Moreover, in the assay on HTT mRNA (RT-qPCR), the AC50 was under 100 nM. The GI50 in assay [1] lay in the range of 100 to 1000 nM.

For `Cc1cn2nc(-c3ccc4c(=O)n(C5CCNC6(CC6)C5)ncc4c3)cc(C)c2n1` (stereo not drawn) [Compound 274], the IC50 in the assay with HTT mRNA (setting [2]), in the assay with HTT mRNA (setting [3]) and with MYB was under 100 nM in each case. In addition, the AC50 in the assay on HTT mRNA (RT-qPCR) is under 100 nM. Also, the GI50 in assay [1] is 100 to 1000 nM.

Consider `Cc1cn2cc(-c3ccc4c(=O)n(C5CCNCC5)ccc4c3)cc(F)c2n1` [Compound 276], for which the IC50 with HTT mRNA (setting [2]), with HTT mRNA (setting [3]) and in the assay on MYB was under 100 nM each time. For the same compound, the AC50 in the assay on HTT mRNA (RT-qPCR) was under 100 nM. Further, in assay [1], the GI50 was under 100 nM.

Regarding `Cc1cn2nc(-c3ccc4c(=O)n([C@@H]5CCN(C)[C@H](C)C5)ncc4c3)cc(C)c2n1` [Compound 277], the IC50 with HTT mRNA (setting [2]), with HTT mRNA (setting [3]) and in the assay with MYB was 100 to 1000 nM in each case. In addition, the AC50 in the assay with HTT mRNA (RT-qPCR) was in the range of 100 to 1000 nM. Moreover, the GI50 in assay [1] was 1000 to 10000 nM.

Take `Cc1cn2nc(-c3ccc4c(=O)n([C@H]5CCN(C)[C@H](C)C5)ncc4c3)cc(C)c2n1` [Compound 278]: the IC50 in the assay on HTT mRNA (setting [2]), in the assay with HTT mRNA (setting [3]) and in the assay with MYB was under 100 nM each time. Besides, the AC50 with HTT mRNA (RT-qPCR) was under 100 nM. In assay [1], the GI50 was 100 to 1000 nM.

As for `Cc1cn2nc(-c3ccc4c(=O)n(C5CCNC(C)(C)C5)ncc4c3)cc(C)c2n1` (stereo not drawn) [Compound 279], the IC50 in the assay on HTT mRNA (setting [2]), with HTT mRNA (setting [3]) and in the assay on MYB was 100 to 1000 nM each time. Besides, the AC50 with HTT mRNA (RT-qPCR) was 100 to 1000 nM. Moreover, the GI50 in assay [1] lay within 1000 to 10000 nM.

`Cc1cn2nc(-c3ccc4c(=O)n([C@@H]5C[C@H]6CC[C@@H](C5)N6)ncc4c3)cc(C)c2n1` [Compound 280]: the IC50 in the assay with HTT mRNA (setting [2]), in the assay with HTT mRNA (setting [3]) and with MYB was 100 to 1000 nM each time. In the assay on HTT mRNA (RT-qPCR), the AC50 was 100 to 1000 nM. In assay [1], the GI50 fell in the range of 1000 to 10000 nM.

On to `Cc1cn2nc(-c3ccc4c(c3)CCN([C@@H]3CCN[C@H](C)C3)C4=O)cc(C)c2n1` [Compound 281], for which the IC50 in the assay with HTT mRNA (setting [2]) is 1000 to 10000 nM; in the assay on HTT mRNA (setting [3]), 1000 to 10000 nM; in the assay with MYB, 100 to 1000 nM. In addition, the concentration at half-maximal activity (AC50) with HTT mRNA (RT-qPCR) was 1000 to 10000 nM. Moreover, the GI50 in assay [1] lay in the range of 1000 to 10000 nM.

In the case of `Cc1cn2nc(-c3ccc4c(=O)n(C5CCN(C)CC5)cnc4c3F)cc(C)c2n1` [Compound 290], the IC50 with HTT mRNA (setting [2]), in the assay with HTT mRNA (setting [3]) and with MYB was 100 to 1000 nM each time. In the assay with HTT mRNA (RT-qPCR), the AC50 lay in the range of 100 to 1000 nM.

In general, IC50 refers to the concentration that gives 50% inhibition. Broadly, the AC50 is the concentration at which the activity in the assay is half-maximal. Usually GI50 stands for the concentration at which growth is held to half of that of the control.
